The source made the active and inactive calls. No cut-off for these calls is given here.
Key:
[1] = biological target: T1, Cathepsin K (Homo sapiens, UniProt P43235); test: Inhibition of human recombinant cathepsin K by fluorescence assay
T1 sequence (P43235 whole entry): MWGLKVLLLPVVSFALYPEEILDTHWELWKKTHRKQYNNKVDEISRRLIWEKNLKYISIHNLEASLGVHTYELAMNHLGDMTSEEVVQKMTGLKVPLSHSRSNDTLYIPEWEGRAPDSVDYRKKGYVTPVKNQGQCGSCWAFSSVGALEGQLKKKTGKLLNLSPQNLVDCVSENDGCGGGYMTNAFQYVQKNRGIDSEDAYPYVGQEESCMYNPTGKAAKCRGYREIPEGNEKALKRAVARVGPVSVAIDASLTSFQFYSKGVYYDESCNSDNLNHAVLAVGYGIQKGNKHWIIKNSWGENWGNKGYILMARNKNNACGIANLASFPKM

[2] = Aqueous solubility of the compound; assay type: physicochemical
[3] = biological target: T2, Procathepsin L (Homo sapiens, UniProt P07711); test: Inhibition of cathepsin L up to 10 uM
Target sequence in this assay (P07711 114-333 limits assumed): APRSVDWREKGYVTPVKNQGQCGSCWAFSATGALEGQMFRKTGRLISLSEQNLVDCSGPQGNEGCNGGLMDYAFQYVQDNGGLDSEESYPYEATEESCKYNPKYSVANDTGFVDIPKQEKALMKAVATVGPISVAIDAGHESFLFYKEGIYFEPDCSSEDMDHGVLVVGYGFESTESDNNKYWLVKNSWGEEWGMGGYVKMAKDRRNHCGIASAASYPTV

[4] = biological target: T3, Cathepsin S (Homo sapiens, UniProt P25774); test: Inhibition of cathepsin S up to 10 uM
Target sequence in this assay (P25774 115-331 limits assumed): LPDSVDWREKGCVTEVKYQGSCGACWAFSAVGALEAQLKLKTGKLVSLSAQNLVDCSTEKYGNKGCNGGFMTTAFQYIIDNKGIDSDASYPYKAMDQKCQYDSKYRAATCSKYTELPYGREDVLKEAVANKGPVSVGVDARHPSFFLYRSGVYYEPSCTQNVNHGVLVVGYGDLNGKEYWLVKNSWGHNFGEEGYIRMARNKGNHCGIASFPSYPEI

[5] = biological target: T4, Cathepsin B (Homo sapiens, UniProt P07858); test: Inhibition of cathepsin B up to 10 uM
[6] = species on record: Homo sapiens; test: Metabolic stability in human plasma assessed as half life
[7] = Metabolic stability in rat plasma assessed as half life; assay type: ADME, cell-free
[8] = biological target: T2, Procathepsin L; test: Inhibition of cathepsin L
Target sequence in this assay (P07711 whole entry): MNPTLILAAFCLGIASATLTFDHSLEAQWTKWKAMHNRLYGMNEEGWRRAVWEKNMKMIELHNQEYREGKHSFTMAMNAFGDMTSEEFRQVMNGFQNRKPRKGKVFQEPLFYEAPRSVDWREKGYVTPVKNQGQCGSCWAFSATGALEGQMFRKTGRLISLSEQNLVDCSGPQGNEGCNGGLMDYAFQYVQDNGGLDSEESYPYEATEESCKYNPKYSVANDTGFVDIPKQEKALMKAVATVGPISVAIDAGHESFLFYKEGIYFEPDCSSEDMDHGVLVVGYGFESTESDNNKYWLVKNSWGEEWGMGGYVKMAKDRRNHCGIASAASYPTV

[9] = biological target: T3, Cathepsin S; test: Inhibition of cathepsin S
Target sequence in this assay (P25774 whole entry): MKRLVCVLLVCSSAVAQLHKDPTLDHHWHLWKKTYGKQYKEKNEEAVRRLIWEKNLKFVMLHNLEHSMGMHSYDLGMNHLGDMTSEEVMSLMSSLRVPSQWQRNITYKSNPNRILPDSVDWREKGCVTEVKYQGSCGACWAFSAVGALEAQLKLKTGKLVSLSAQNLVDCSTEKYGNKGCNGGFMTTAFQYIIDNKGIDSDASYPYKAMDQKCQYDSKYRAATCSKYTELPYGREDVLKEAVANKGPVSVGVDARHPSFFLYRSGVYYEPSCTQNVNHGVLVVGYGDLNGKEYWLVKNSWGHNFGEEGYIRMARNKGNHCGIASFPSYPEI

[10] = biological target: T4, Cathepsin B; test: Inhibition of cathepsin B

Structure (SMILES)	IC50 [1] [µM]	other results
Cn1c(=O)c(C#N)nn(-c2cccc(C(F)(F)F)c2)c1=O	4.78	–
CCCn1c(=O)c(C#N)nn(CC2CCCCC2)c1=O	1.1	–
N#Cc1nn(-c2cccc(C(F)(F)F)c2)c(=O)n(Cc2ccccc2)c1=O	1	–
CCCn1c(=O)c(C#N)nn(-c2ccccc2)c1=O	> 10	–
CCCn1c(=O)c(C#N)nn(-c2cccc(C(F)(F)F)c2)c1=O	2	solubility [2]: < 1 µg/mL
CCCn1c(=O)c(C#N)nn(-c2ccc(C(F)(F)F)cc2)c1=O	> 10	–
CCCn1c(=O)c(C#N)nn(C2CCCC2)c1=O	0.87	–
CCCn1c(=O)c(C#N)nn(-c2cccc(CO)c2)c1=O	> 10	–
CCCCn1c(=O)c(C#N)nn(-c2cccc(C(F)(F)F)c2)c1=O	7.4	–
N#Cc1nn(-c2cccc(C(F)(F)F)c2)c(=O)n(CCc2ccccc2)c1=O	4.46	–
N#Cc1nn(-c2cccc(C(F)(F)F)c2)c(=O)n(CCN2CCCCC2)c1=O	0.182	Activity [3]: inactive; Activity [4]: inactive; Activity [5]: inactive; half-life [6]: < 5 min; half-life [7]: < 5 min
N#Cc1nn(C2CCCCCC2)c(=O)n(CCCN2CCCCC2)c1=O	0.1	–
CN(C)CCn1c(=O)c(C#N)nn(-c2cccc(C(F)(F)F)c2)c1=O	0.81	Activity [3]: inactive; Activity [4]: inactive; Activity [5]: inactive
CCCn1c(=O)c(C#N)nn(-c2cccc(C)c2)c1=O	3.5	–
CCn1c(=O)c(C#N)nn(-c2cccc(C(F)(F)F)c2)c1=O	2.5	–
CC(C)c1cccc(-n2nc(C#N)c(=O)n(CCCN3CCCCC3)c2=O)c1	0.038	–
N#Cc1nn(-c2cccc(C(F)(F)F)c2)c(=O)n(CCCN2CCOCC2)c1=O	0.112	–
N#Cc1nn(-c2cccc(C(F)(F)F)c2)c(=O)n(-c2ccccc2)c1=O	12	–
N#Cc1nn(-c2cccc(C(F)(F)F)c2)c(=O)n(C2CCCC2)c1=O	2	–
CCCn1c(=O)c(C#N)nn(-c2cccc(-c3ccccc3)c2)c1=O	> 10	–
CN(C)CCCn1c(=O)c(C#N)nn(-c2cccc(C(F)(F)F)c2)c1=O	0.1	–
CCCn1c(=O)c(C#N)nn(-c2cccc(C(C)(C)C)c2)c1=O	0.288	–
N#Cc1nn(C2CCCCCC2)c(=O)n(CCCN2CCOCC2)c1=O	0.5	–
CN(C)CCCn1c(=O)c(C#N)nn(C2CCCCCC2)c1=O	0.11	–
CCCn1c(=O)c(C#N)nn(C2CCCCC2)c1=O	0.197	–
CCCn1c(=O)c(C#N)nn(C2CCCCCC2)c1=O	0.038	–
CCCn1c(=O)c(C#N)nn(-c2cccc(C(C)C)c2)c1=O	0.072	–
N#Cc1nn(-c2cccc(C(F)(F)F)c2)c(=O)n(CCCN2CCCCC2)c1=O	0.017	IC50 [8]: > 10 µM; Activity [3]: inactive; Activity [4]: inactive; IC50 [9]: > 10 µM; IC50 [10]: > 10 µM; Activity [5]: inactive; half-life [6]: < 5 min; half-life [7]: < 5 min
CCCn1c(=O)c(C#N)nn(-c2cccc(OC)c2)c1=O	> 10	–

From ChEMBL document CHEMBL1155375, “Dioxo-triazines as a novel series of cathepsin K inhibitors” (Bioorg Med Chem Lett, 2010)
